These molecules were tested against T1, fMet-Leu-Phe receptor (Homo sapiens, UniProt P21462) (assay: FPR ligands, dose response (AID 519)).
T1 sequence (P21462 whole entry): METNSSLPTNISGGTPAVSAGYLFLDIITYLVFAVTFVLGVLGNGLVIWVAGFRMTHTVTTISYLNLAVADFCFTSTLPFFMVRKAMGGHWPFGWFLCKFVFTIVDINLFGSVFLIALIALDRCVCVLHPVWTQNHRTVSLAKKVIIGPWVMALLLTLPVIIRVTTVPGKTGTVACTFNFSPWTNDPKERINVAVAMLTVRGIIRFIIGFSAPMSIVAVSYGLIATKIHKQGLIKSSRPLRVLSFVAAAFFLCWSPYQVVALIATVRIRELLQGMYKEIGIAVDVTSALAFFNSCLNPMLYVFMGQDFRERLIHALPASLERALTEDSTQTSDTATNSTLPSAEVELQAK
With Cc1cc(N2C(=O)C(=O)C(C(=O)c3ccc(F)cc3)C2c2cccc(Br)c2)no1 (stereo not given) [(4E)-5-(3-bromophenyl)-4-[(4-fluorophenyl)-hydroxy-methylene]-1-(5-methylisoxazol-3-yl)pyrrolidine-2,3-quinone] the Ki was greater than 43.7 µM. With CCCOc1ccc(C2C(C(=O)c3ccco3)C(=O)C(=O)N2CCCn2ccnc2)cc1 (stereo not given) [3-(furan-2-carbonyl)-4-hydroxy-1-(3-imidazol-1-ylpropyl)-2-(4-propoxyphenyl)-2H-pyrrol-5-one] the Ki was greater than 43.7 µM. In the case of COc1cccc(C2C(C(=O)c3cc4ccccc4o3)C(=O)C(=O)N2c2cc(C)on2)c1OC (stereo not given) [3-(1-benzofuran-2-carbonyl)-2-(2,3-dimethoxyphenyl)-4-hydroxy-1-(5-methyl-1,2-oxazol-3-yl)-2H-pyrrol-5-one], the Ki is reported as greater than 43.7 µM. COc1ccc(C(=O)C2C(=O)C(=O)N(Cc3ccco3)C2c2ccc(OC)cc2OC)cc1 (stereo not given) [(4E)-5-(2,4-dimethoxyphenyl)-1-(2-furanylmethyl)-4-[hydroxy-(4-methoxyphenyl)methylidene]pyrrolidine-2,3-dione] showed a Ki greater than 43.7 µM. Molecule C=CCOc1ccc(C2C(C(=O)c3cccs3)C(=O)C(=O)N2c2nnc(C)s2)cc1 (stereo not given) [1-(5-methyl-1,3,4-thiadiazol-2-yl)-4-oxidanyl-2-(4-prop-2-enoxyphenyl)-3-thiophen-2-ylcarbonyl-2H-pyrrol-5-one] has a Ki of 26.5 µM. Work on CCOc1cc(C2C(C(=O)c3ccco3)C(=O)C(=O)N2CCc2ccccc2)ccc1O (stereo not given) [2-(3-ethoxy-4-hydroxyphenyl)-3-(furan-2-carbonyl)-4-hydroxy-1-(2-phenylethyl)-2H-pyrrol-5-one] yielded a Ki greater than 43.7 µM. With CCCCc1c(O)n(-c2ccccc2)n(-c2ccccc2)c1=O [3,5-Dioxo-1,2-diphenyl-4-n-butylpyrazolidine] the Ki was 3.5 µM. Work on O=C1C(=O)N(CCc2ccccc2)C(c2cccnc2)C1C(=O)c1ccco1 (stereo not given) [3-(furan-2-carbonyl)-4-hydroxy-1-(2-phenylethyl)-2-pyridin-3-yl-2H-pyrrol-5-one] yielded a Ki greater than 43.7 µM. Cc1ccc(C(=O)C2C(=O)C(=O)N(Cc3ccccc3)C2c2cccnc2)o1 (stereo not given) [1-benzyl-3-hydroxy-4-[(5-methylfuran-2-yl)carbonyl]-5-(pyridin-3-yl)-2,5-dihydro-1H-pyrrol-2-one] showed a Ki greater than 43.7 µM. With O=C1C(=O)N(CCN2CCOCC2)C(c2ccccc2)C1C(=O)c1cccs1 (stereo not given) [1-(2-morpholin-4-ylethyl)-4-oxidanyl-2-phenyl-3-thiophen-2-ylcarbonyl-2H-pyrrol-5-one] the Ki was greater than 43.7 µM. Molecule CCOc1cccc(C(=O)C2C(=O)C(=O)N(CCOC)C2c2ccc(C)o2)c1 (stereo not given) [(4Z)-4-[(3-ethoxyphenyl)-hydroxymethylidene]-1-(2-methoxyethyl)-5-(5-methyl-2-furanyl)pyrrolidine-2,3-dione] has a Ki of 8.8 µM. COc1cccc2cc(C(=O)C3C(=O)C(=O)N(Cc4ccco4)C3c3cccnc3)oc12 (stereo not given) [1-(2-furanylmethyl)-4-hydroxy-3-[(7-methoxy-2-benzofuranyl)-oxomethyl]-2-(3-pyridinyl)-2H-pyrrol-5-one] was tested, and the Ki was greater than 43.7 µM. In the case of COC(=O)c1[nH]c(C)c(C(=O)C2C(=O)C(=O)N(CCN3CCOCC3)C2c2cccs2)c1C (stereo not given), the Ki is reported as 3.3 µM. Work on COC(=O)c1ccc(C2C(C(=O)c3ccc(OC)cc3)C(=O)C(=O)N2Cc2ccco2)cc1 (stereo not given) [4-[(3Z)-1-(2-furanylmethyl)-3-[hydroxy-(4-methoxyphenyl)methylidene]-4,5-dioxo-2-pyrrolidinyl]benzoic acid methyl ester] yielded a Ki of 28.1 µM. Work on CCOc1ccc(C2C(C(=O)c3ccco3)C(=O)C(=O)N2Cc2cccnc2)cc1 (stereo not given) [2-(4-ethoxyphenyl)-3-(furan-2-carbonyl)-4-hydroxy-1-(pyridin-3-ylmethyl)-2H-pyrrol-5-one] yielded a Ki of 10 µM. With COc1cc(C2C(C(=O)c3ccc(C)o3)C(=O)C(=O)N2CCc2ccccc2)ccc1O (stereo not given) [2-(3-methoxy-4-oxidanyl-phenyl)-3-(5-methylfuran-2-yl)carbonyl-4-oxidanyl-1-(2-phenylethyl)-2H-pyrrol-5-one] the Ki was 12.9 µM. With C=C(c1ccc(Br)cc1)c1sc(N2CCCC2)nc1O [(5Z)-5-[1-(4-bromophenyl)ethylidene]-2-(1-pyrrolidinyl)-4-thiazolone] the Ki was greater than 43.7 µM. COc1cccc(C(=O)C2C(=O)C(=O)N(Cc3cccnc3)C2c2ccco2)c1 (stereo not given) [(4Z)-5-(2-furanyl)-4-[hydroxy-(3-methoxyphenyl)methylidene]-1-(3-pyridinylmethyl)pyrrolidine-2,3-dione] was tested, and the Ki was greater than 43.7 µM. Cc1ccc(C)c(C(=O)C2C(=O)C(=O)N(CCCn3ccnc3)C2c2ccncc2)c1 (stereo not given) [(4E)-4-[(2,5-dimethylphenyl)-hydroxy-methylene]-1-(3-imidazol-1-ylpropyl)-5-(4-pyridyl)pyrrolidine-2,3-quinone] gave a Ki greater than 43.7 µM. For CCOc1ccc(C2C(C(=O)c3ccco3)C(=O)C(=O)N2CCCn2ccnc2)cc1 (stereo not given) [2-(4-ethoxyphenyl)-3-(furan-2-carbonyl)-4-hydroxy-1-(3-imidazol-1-ylpropyl)-2H-pyrrol-5-one], the Ki was 6.4 µM.

From BindingDB's records for doi:10.7270/Q2NZ862K (Nmmlsc, 2007)
